Measured values from US20120088664A1, “Antifungal 1,2,4-triazolyl derivatives having a 5-sulfur subtituent” (BASF SE, priority 2009, published 2012).

How the values were obtained:
Phytophthora infestans = type: in vivo; conditions: 300 ppm active compound, tomato plants sprayed to run-off, inoculated next day, assessed after 6 days; untreated plants 90% infected
Botrytis cinerea = assay: Preventative control of grey mold (Botrytis cinerea) on leaves of green pepper (greenhouse test); type: in vivo; conditions: 300 ppm active compound, green pepper seedlings sprayed to run-off, inoculated next day, assessed after 5 days; untreated plants 90% infected

| Compound | melting point | infection (fungal attack on the leaves visually assessed as % diseased leaf area) (Phytophthora infestans) | infection (fungal attack on the leaves visually assessed as % diseased leaf area) (Botrytis cinerea) |
| --- | --- | --- | --- |
| CC(C)(C)C(O)(CCc1ccc(Cl)c(Cl)c1)Cn1nc[nH]c1=S (stereo not shown) [Example 3, 1-(2-(3,4-Dichlorophenethyl)-2-hydroxy-3,3-dimethylbutyl)-1H-1,2,4-triazole-5(4H)-thione] | 155 to 157 °C |  |  |
| Cc1ccc(CCC(O)(Cn2nc[nH]c2=S)C(C)(C)C)cc1 (stereo not shown) [Example 5, 1-(2-hydroxy-3,3-dimethyl-2-(4-methylphenethyl)butyl)-1H-1,2,4-triazole-5(4H)-thione] | 137 to 138 °C |  |  |
| CC(C)(C)C(O)(CCc1ccc(Cl)cc1Cl)Cn1nc[nH]c1=S (stereo not shown) [Example 1, 1-(2-(2,4-dichlorophenethyl)-2-hydroxy-3,3-dimethylbutyl)-1H-1,2,4-triazole-5(4H)-thione] |  | 15% |  |
| CC(C)(C)C(O)(CCc1ccc(C(F)(F)F)cc1)Cn1nc[nH]c1=S (stereo not shown) [Example 6, 1-(2-Hydroxy-3,3-dimethyl-2-(4-(trifluoromethyl)phenethyl)butyl)-1H-1,2,4-triazole-5(4H)-thione] | 139 to 140 °C |  |  |
| CC(C)(C)C(O)(CCc1ccc(F)cc1)Cn1nc[nH]c1=S (stereo not shown) [Example 4, 1-(2-(4-Fluorophenethyl)-2-hydroxy-3,3-dimethylbutyl)-1H-1,2,4-triazole-5(4H)-thione] | 134 to 135 °C |  | 7% |
| CC(C)(C)C(O)(CCc1ccc(F)cc1F)Cn1nc[nH]c1=S (stereo not shown) [Example 2, 1-(2-(2,4-Difluorophenethyl)-2-hydroxy-3,3-dimethylbutyl)-1H-1,2,4-triazole-5(4H)-thione] | 130 to 132 °C |  |  |
